The target of one experiment is PI3Kα (Homo sapiens (Human), UniProt P42336). The experiment is described as follows: Inhibition of PI3Kα (ADP-Glo kinase activity assay, ATP to ADP conversion). The format is biochemical. The note with it: 25 μM PIP2:PS, 60 μM ATP, 30 min reaction, luminescence. The method, boiled down: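 Recombinant active PI3Kα (1.1 nM) in HEPES pH 7.5 buffer with 6 mM MgCl2 and 8 mM DTT was preincubated with compound for 0 or 3 h. The reaction ran for 30 min with 25 µM PIP2:PS and 60 µM ATP, and ADP formation was read by ADP-Glo luminescence. IC50 came from a 12-point, 1:3 series fitted with a 4-parameter model, bottom fixed to reference inhibitor controls and top floating.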
For orientation: ADP-Glo first removes unused ATP, then detects ADP through luciferase.

The target in the next experiment is mTor kinase (Homo sapiens (Human), UniProt P42345). The experiment can be described thus: mTor assay (33P-ATP filter-binding kinase assay). The format is biochemical. The note with it: 2 hours at room temperature. As to the method: The substrate was prepared in base reaction buffer (20 mM Hepes (pH 7.5), 10 mM MgCl2, 1 mM EGTA, 0.02% Brij35, 0.02 mg/ml BSA, 0.1 mM Na3VO4, 2 mM DTT, 1% DMSO), and required cofactors were added to the substrate solution. The mTor kinase was delivered into the substrate solution, and the solution was gently mixed. Testing compounds were dissolved in 100% DMSO to specific concentration. The serial dilution was conducted by Integra Viaflo Assist in DMSO. The compounds were delivered into the kinase reaction mixture by Acoustic technology (Echo550; nanoliter range), and the reaction mixture was incubated for 20 min at room temperature. Then, 33P-ATP (Specific activity 10 μCi/μl) was delivered into the reaction mixture to initiate the reaction. The reaction mixture was incubated for 2 hours at room temperature. Radioactivity was detected by a filter-binding method. Kinase activity data were expressed as the percent remaining kinase activity in test samples compared to vehicle (dimethyl sulfoxide) reactions. IC50 values and curve fits were obtained using Prism (GraphPad Software).

The test system of experiment [1] is (Ser-473) pAKT in B103 (Rat Neuroblastoma) cells. The experiment can be described thus: pAKT protocol: loss of (Ser-473) pAKT by AlphaScreen in insulin-stimulated B103 cells. The format is cell-based. The note with it: (Ser-473) pAKT/total AKT IC50, 2-hour pretreatment, 2.5 μg/mL insulin 20 minutes. The procedure:
Inhibition of the PI3K-AKT-mTOR pathway was measured by quantifying the loss of (Ser-473) pAKT using AlphaScreen (Perkin Elmer). B103 (Rat Neuroblastoma) cells were seeded in serum containing medium (High Glucose DMEM (-Phenol Red)+10% FBS+2× Glutamax+1 mM Sodium Pyruvate+10 mM HEPES+1× Non-Essential Amino Acids+1× Pen/Strep) on a 96-well tissue culture treated plate and grown for 20 hours. Cells were then serum starved in serum free medium (High Glucose DMEM (-Phenol Red)+1× Glutamax+1 mM Sodium Pyruvate+1× Pen/Strep) for 6 hours prior to a 2-hour pretreatment with inhibitors of the pathway, including reference inhibitor LY294002. These inhibitors were prepared at a 200× final concentration as a 6-point, 1:3 serial dilution in DMSO series, with DMSO as the 7th point. The inhibitors were then diluted in experimental medium (High Glucose DMEM (-Phenol Red)+1× Glutamax+1 mM Sodium Pyruvate+1× Pen/Strep+25 mM HEPES+0.1% BSA) and combined with the cells at 1× final concentration in 0.5% DMSO. […] Cells were promptly lysed using Perkin Elmer proprietary lysis buffer and the (Ser-473) pAKT and total AKT contained in the lysate was measured by AlphaScreen. In AlphaScreen, donor beads were coated with streptavidin to capture one of the antibodies, which is biotinylated. Acceptor beads were coated with Protein A to immobilize the other antibody. In the presence of target protein, the two antibodies bring the donor and acceptor beads close together, generating signal. The amount of light emission is directly proportional to the amount of target protein present in the sample. For each inhibitor tested: the ratio of measured (Ser-473) pAKT/totalAKT was plotted in GraphPad Prism as a 7-point, non-linear regression, 4-parameter curve with bottom constrained to reference control bottom and unconstrained top anchored to DMSO.
A general note: In Alpha technology, singlet oxygen from a donor bead excites a nearby acceptor bead.

Counter-ions that a name gives are not always drawn.

In general, IC50 refers to the point on the concentration scale where inhibition reaches its midpoint.

Chain of PI3Kα (P42336 whole entry): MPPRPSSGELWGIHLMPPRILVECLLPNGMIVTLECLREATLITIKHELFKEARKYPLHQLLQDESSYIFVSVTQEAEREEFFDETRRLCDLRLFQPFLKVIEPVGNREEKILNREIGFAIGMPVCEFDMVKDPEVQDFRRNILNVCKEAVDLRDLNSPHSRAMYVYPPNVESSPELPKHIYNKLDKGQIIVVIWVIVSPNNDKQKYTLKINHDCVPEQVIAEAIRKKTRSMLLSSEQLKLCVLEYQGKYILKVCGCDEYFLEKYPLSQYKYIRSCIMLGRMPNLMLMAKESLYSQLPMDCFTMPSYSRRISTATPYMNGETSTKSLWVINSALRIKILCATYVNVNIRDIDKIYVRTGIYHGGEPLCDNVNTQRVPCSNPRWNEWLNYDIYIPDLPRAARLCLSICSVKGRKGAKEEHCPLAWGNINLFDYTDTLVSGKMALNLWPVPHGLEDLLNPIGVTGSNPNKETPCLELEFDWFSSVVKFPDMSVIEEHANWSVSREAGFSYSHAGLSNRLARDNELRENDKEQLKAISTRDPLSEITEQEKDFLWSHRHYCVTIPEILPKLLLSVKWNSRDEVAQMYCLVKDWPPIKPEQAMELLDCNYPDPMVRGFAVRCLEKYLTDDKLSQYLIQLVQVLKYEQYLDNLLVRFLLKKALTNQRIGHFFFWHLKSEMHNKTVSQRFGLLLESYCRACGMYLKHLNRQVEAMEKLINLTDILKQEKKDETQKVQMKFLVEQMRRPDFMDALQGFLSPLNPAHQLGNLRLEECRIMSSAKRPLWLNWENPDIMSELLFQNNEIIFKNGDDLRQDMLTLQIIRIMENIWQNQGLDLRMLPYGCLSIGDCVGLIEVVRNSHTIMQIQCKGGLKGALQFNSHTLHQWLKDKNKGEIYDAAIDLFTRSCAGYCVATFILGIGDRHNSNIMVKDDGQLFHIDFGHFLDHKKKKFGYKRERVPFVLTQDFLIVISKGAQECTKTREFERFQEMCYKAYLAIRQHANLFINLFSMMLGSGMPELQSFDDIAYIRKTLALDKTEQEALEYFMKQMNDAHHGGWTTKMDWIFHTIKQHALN
Chain of PI3Kα (P27986 whole entry partner): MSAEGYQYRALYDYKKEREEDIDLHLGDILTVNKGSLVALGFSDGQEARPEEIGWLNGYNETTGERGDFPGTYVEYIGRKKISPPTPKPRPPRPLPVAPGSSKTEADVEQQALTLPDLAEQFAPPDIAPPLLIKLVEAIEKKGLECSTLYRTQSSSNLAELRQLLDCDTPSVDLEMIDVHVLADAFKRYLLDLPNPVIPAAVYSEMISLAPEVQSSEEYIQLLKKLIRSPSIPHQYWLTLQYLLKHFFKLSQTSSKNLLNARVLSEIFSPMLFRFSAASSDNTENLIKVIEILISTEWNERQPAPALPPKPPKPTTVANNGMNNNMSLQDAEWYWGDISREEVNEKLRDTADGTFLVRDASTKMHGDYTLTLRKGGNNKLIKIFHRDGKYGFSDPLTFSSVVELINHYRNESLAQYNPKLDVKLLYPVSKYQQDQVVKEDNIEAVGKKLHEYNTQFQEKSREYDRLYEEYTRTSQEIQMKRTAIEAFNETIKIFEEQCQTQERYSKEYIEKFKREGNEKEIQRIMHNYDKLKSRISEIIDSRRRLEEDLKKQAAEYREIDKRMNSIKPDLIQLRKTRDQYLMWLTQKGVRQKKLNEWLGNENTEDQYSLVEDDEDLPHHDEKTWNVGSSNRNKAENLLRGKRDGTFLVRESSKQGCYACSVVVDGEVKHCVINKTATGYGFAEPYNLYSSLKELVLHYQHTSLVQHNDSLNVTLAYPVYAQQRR

Regarding `Nc1ncc(-c2cc(N3CCOCC3)cc(S(=O)(=O)Cc3c[nH]c4ccccc34)c2)cn1` [48 (as a TFA salt), 5-(3-(((1H-indol-3-yl)methyl)sulfonyl)-5-morpholinophenyl)pyrimidin-2-amine], the “PI3Ka IC50” value on PI3Kα worked out at 0.47 µM. Besides, the IC50 at mTor kinase was 6.39 µM; in experiment [1] it was over 50 µM.
Taken in the same sequence, the figures for `Nc1ncc(-c2cc(N3CCOCC3)cc(S(=O)(=O)c3cccc4c3OCC4)c2)cn1` [Compound 111, 5-(3-((2,3-dihydrobenzofuran-7-yl)sulfonyl)-5-morpholinophenyl)pyrimidin-2-amine] were 0.38 µM, 5.4 µM and 14.5 µM.
On the same counts, the results for `Nc1ncc(-c2cc(N3CCOCC3)cc(S(=O)(=O)CC3CCOC3)c2)cn1` (stereo not drawn) [Compound 38, 5-(3-morpholino-5-(((tetrahydrofuran-3-yl)methyl)sulfonyl)phenyl)pyrimidin-2-amine] are 0.74 µM, 3.6 µM and 9.11 µM.
On the same counts, the results for `O=S(=O)(c1ccccc1)c1cc(-c2cnc(NC3CC3)nc2)cc(N2CCOCC2)c1` [Compound 20, N-cyclopropyl-5-(3-morpholino-5-(phenylsulfonyl)phenyl)pyrimidin-2-amine] are 2.7 µM, 10 µM and 100 µM.
In the case of `Cc1ccccc1Oc1cc(-c2cnc(N)nc2)nc(N2CCOCC2)c1` [Compound 137, 5-(6-morpholino-4-(o-tolyloxy)pyridin-2-yl)pyrimidin-2-amine], the “PI3Ka IC50” value on PI3Kα is 0.075 µM. Also, the IC50 amounted to 0.37 µM at mTor kinase and 0.45 µM in experiment [1].
On the same counts, the results for `CC(c1ccccc1)c1cc(-c2cnc(N)nc2)nc(N2CCOCC2)c1` (stereo not drawn) [Compound 125, 5-(6-morpholino-4-(1-phenylethyl)pyridin-2-yl)pyrimidin-2-amine] are 0.21 µM, 0.27 µM and 0.81 µM.
On the same counts, the results for `N#Cc1ccc(S(=O)(=O)c2cc(-c3cnc(N)nc3C(F)(F)F)cc(N3CCOCC3)c2)cc1` [Compound 17, 4-((3-(2-amino-4-(trifluoromethyl)pyrimidin-5-yl)-5-morpholinophenyl)sulfonyl)benzonitrile] are 1.9 µM, 100 µM and 100 µM.
On the same counts, the results for `Nc1ncc(-c2cc(N3CCOCC3)cc(S(=O)(=O)c3ccc(OC(F)(F)F)cc3)c2)cn1` [Compound 15, 5-(3-morpholino-5-((4-(trifluoromethoxy)phenyl)sulfonyl)phenyl) pyrimidin-2-amine] are 3.5 µM, 22 µM and 100 µM.
With `O=S(=O)(c1cc(-c2cnc(NC3CC3)nc2)cc(N2CCOCC2)c1)C1CCOC1` (stereo not drawn) [Compound 103, N-cyclopropyl-5-(3-morpholino-5-((tetrahydrofuran-3-yl)sulfonyl)phenyl)pyrimidin-2-amine], the “PI3Ka IC50” value on PI3Kα was determined as 0.68 µM. The IC50 in experiment [1] came to 5.81 µM.
Taken in the same sequence, the figures for `Nc1ncc(-c2cc(N3CCOCC3)nc(S(=O)(=O)c3ccccc3)c2)cn1` [Compound 118, 5-(2-morpholino-6-(phenylsulfonyl)pyridin-4-yl)pyrimidin-2-amine] were 0.88 µM and 13.8 µM.
On the same counts, the results for `Nc1ncc(-c2cc(Cc3ccccc3)cc(N3CCOCC3)n2)cn1` [Compound 124, 5-(4-benzyl-6-morpholinopyridin-2-yl)pyrimidin-2-amine] are 0.12 µM and 0.89 µM.
On the same counts, the results for `Nc1ncc(-c2cc(S(=O)(=O)c3ccccc3Cl)cc(N3CCOCC3)n2)cn1` [Compound 139, 5-(4-((2-chlorophenyl)sulfonyl)-6-morpholinopyridin-2-yl)pyrimidin-2-amine] are 0.017 µM and 0.016 µM.
In the case of `Nc1ccc(-c2cc(N3CCOCC3)cc(S(=O)(=O)[C@@H]3CCOC3)c2)cn1` [Compound 101, (R)-5-(3-morpholino-5-((tetrahydrofuran-3-yl)sulfonyl)phenyl)pyridin-2-amine], the “PI3Ka IC50” value at PI3Kα was found to be 0.88 µM. Further, the IC50 in experiment [1] turned out to be 8.53 µM.
On the same counts, the results for `Nc1ncc(-c2cc(N3CCOCC3)cc(S(=O)(=O)CC3CCCCC3)c2)cn1` [Compound 60, 5-(3-((cyclohexylmethyl)sulfonyl)-5-morpholinophenyl)pyrimidin-2-amine] are 0.81 µM and 31.1 µM.
Taken in the same sequence, the figures for `CC(=O)N1CCC(S(=O)(=O)c2cc(-c3cnc(N)nc3)cc(N3CCOCC3)c2)CC1` [Compound 83, 1-(4-((3-(2-aminopyrimidin-5-yl)-5-morpholinophenyl)sulfonyl)piperidin-1-yl)ethan-1-one] were 0.34 µM and 8.47 µM.
Taken in the same sequence, the figures for `Nc1cc(C(F)(F)F)c(-c2cc(N3CCOCC3)cc(S(=O)(=O)[C@@H]3CCOC3)c2)cn1` [Compound 71, (R)-5-(3-morpholino-5-((tetrahydrofuran-3-yl)sulfonyl)phenyl)-4-(trifluoromethyl)pyridin-2-amine] were 9.1 µM and 11.2 µM.
Turning to `CC(C)(C)NC(=O)N1CC(S(=O)(=O)c2cc(-c3cnc(N)nc3)cc(N3CCOCC3)c2)C1` [Compound 92, 3-((3-(2-aminopyrimidin-5-yl)-5-morpholinophenyl)sulfonyl)-N-(tert-butyl)azetidine-1-carboxamide], the “PI3Ka IC50” value at PI3Kα is 0.15 µM. The IC50 in experiment [1] came out at 2.91 µM.
Taken in the same sequence, the figures for `Nc1ccc(-c2cc(N3CCOCC3)cc(S(=O)(=O)Cc3ccc(F)cc3F)c2)nn1` [Compound 96, 6-(3-((2,4-difluorobenzyl)sulfonyl)-5-morpholinophenyl)pyridazin-3-amine] were 1.4 µM and 1.06 µM.
On the same counts, the results for `Nc1ncc(-c2cc(N3CCOCC3)cc(S(=O)(=O)c3ccc4c(c3)OCC4)c2)cn1` [Compound 116, 5-(3-((2,3-dihydrobenzofuran-6-yl)sulfonyl)-5-morpholinophenyl)pyrimidin-2-amine] are 2.3 µM and 22.9 µM.
Taken in the same sequence, the figures for `Nc1ncc(-c2cc(N3CCOCC3)cc(S(=O)(=O)C3CN(C(=O)c4ccc(F)cc4)C3)c2)cn1` [Compound 79, (3-((3-(2-aminopyrimidin-5-yl)-5-morpholinophenyl)sulfonyl)azetidin-1-yl)(4-fluorophenyl)methanone] were 0.21 µM and 5.02 µM.
For `NC(=O)N1CC(S(=O)(=O)c2cc(-c3cnc(N)nc3)cc(N3CCOCC3)c2)C1` [Compound 81, 3-((3-(2-aminopyrimidin-5-yl)-5-morpholinophenyl)sulfonyl)azetidine-1-carboxamide], the “PI3Ka IC50” value at PI3Kα was found to be 0.062 µM. Moreover, in experiment [1], the IC50 is 26.4 µM.
Taken in the same sequence, the figures for `Nc1ncc(-c2cc(N3CCOCC3)cc(S(=O)(=O)/C=C/c3ccccc3O)c2)cn1` [Compound 113, (E)-2-(2-((3-(2-aminopyrimidin-5-yl)-5-morpholinophenyl)sulfonyl)vinyl)phenol] were 1.1 µM and 14.3 µM.
Taken in the same sequence, the figures for `Nc1ncc(-c2cc(N3CCOCC3)cc(S(=O)(=O)C3CCOC3)c2)c(C(F)(F)F)n1` (stereo not drawn) [Compound 72, 5-(3-morpholino-5-((tetrahydrofuran-3-yl)sulfonyl)phenyl)-4-(trifluoromethyl)pyrimidin-2-amine] were 0.46 µM and 9.13 µM.

Source of the values: patent US11492348B2, “Tri-substituted aryl and heteroaryl derivatives as modulators of PI3-kinase and autophagy pathways” (Neuropore Therapies, Inc., priority 2018, dated 2022).
